ChEMBL document CHEMBL1201862, “PubChem BioAssay data set” (2004)
Active and inactive are the calls of the source.

Assays:
[1] = HEK-293T cell viability reduction – luminescence, B-cell screen hits, cytotoxicity control for BCR NF-kB inhibitor project, dose response (AID 489021); type: functional, cell-based;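 further: HEK-293T cells carrying an NF-kB luciferase reporter; cells exposed to compound for about 14 hours before viability readout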
[2] = biological target: G-protein coupled receptor 55 (Homo sapiens, UniProt Q9Y2T6); assay: blockers of GPR55 signalling, imaged – imaging, image-based, counter-screen for GPR35 antagonist project, SAR follow-up (AID 2397); type: functional
[3] = biological target: T1, G-protein coupled receptor 35 (Homo sapiens, UniProt Q9HC97); assay: SAR Analysis for the identification of Selective Antagonists of ERK1/2 Activity in GPR35-Overexpressing U2OS Cells. [Related pubchem assays: 2079, 2058 ]; type: functional, cell-based
[4] = biological target: T1, G-protein coupled receptor 35; assay: inhibition of zaprinast-stimulated GPR35 beta-arrestin translocation – imaging, U2OS, beta-arrestin-GFP, zaprinast agonist, primary screen (AID 2058); type: functional;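 further: antagonist potency meaning inhibition of agonist-induced arrestin redistribution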
Trypsin = Trypsin (Sus scrofa, UniProt P00761); assay: trypsin protease activity blockade – biochemical, quenched peptide fluorescence, cherry-pick, selectivity assay for Rce1 protease inhibitor project, dose response (AID 488789)
Cytochrome P450 2C9 [5] = biological target: T2, Cytochrome P450 2C9 (Homo sapiens, UniProt P11712)
CAAX prenyl protease 1 = CAAX prenyl protease 1 (Saccharomyces cerevisiae S288c, UniProt P47154); assay: yeast CAAX protease Ste24 inhibition – biochemical, S. cerevisiae, plate reader, cherry-pick, dose response (AID 488815)
[6] = biological target: T3, Delta-type opioid receptor (Homo sapiens, UniProt P41143); assay: SAR Analysis of Antagonists of the DOR Receptor using an Image-Based Assay - Set 2. [Related pubchem assays (depositor defined):AID1777, AID1785, AID1786, AID1966, AID2133, AID2136, AID2284, AID2285, AID2357]; type: functional
[7] = biological target: T3, Delta-type opioid receptor; assay: SAR Analysis of Agonists of the DOR Receptor using an Image-Based Assay - Set 2. [Related pubchem assays (depositor defined):AID1777, AID1785, AID1786, AID1966, AID2133, AID2136, AID2284, AID2285, AID2370]; type: functional
Mu-type opioid receptor [8] = biological target: T4, Mu-type opioid receptor (Homo sapiens, UniProt P35372); assay: SAR Analysis of Antagonists of the MOR Receptor using an Image-Based Assay - Set 2. [Related pubchem assays (depositor defined):AID1777, AID1785, AID1786, AID1966, AID2133, AID2136, AID2284, AID2285, AID2420]; type: functional
[9] = biological target: T5, Kappa-type opioid receptor (Homo sapiens, UniProt P41145); assay: SAR analysis of Antagonists of the Kappa Opioid Receptor (KOR) using an Image-Based Assay - Set 2. [Related pubchem assays (depositor defined):AID1777, AID1785, AID1786, AID1966, AID2133, AID2136, AID2284, AID2285, AID2348]; type: functional
Mu-type opioid receptor [10] = biological target: T4, Mu-type opioid receptor; assay: SAR Analysis of Agonists of the MOR Receptor using an Image-Based Assay - Set 2. [Related pubchem assays (depositor defined):AID1777, AID1785, AID1786, AID1966, AID2133, AID2136, AID2284, AID2285, AID2352]; type: functional
[11] = biological target: T5, Kappa-type opioid receptor; assay: SAR analysis of Agonists of the Kappa Opioid Receptor (KOR) using an Image-Based Assay - Set 2. [Related pubchem assays (depositor defined):AID1777, AID1786, AID1966, AID2133, AID2136, AID2284, AID2285, AID2359]; type: functional
[12] = biological target: T5, Kappa-type opioid receptor; assay: SAR analysis of small molecule agonists of the kappa opioid receptor via a luminescent beta-arrestin assay - Set 2. [Related pubchem assays (depositor defined):AID1777, AID1785, AID1786, AID1966, AID2133, AID2136, AID2284, AID449737]; type: functional
[13] = restored growth of temperature-sensitive Burl-1 yeast – whole organism, S. cerevisiae, Burl-1 ts mutant, luminescence, counter-screen for SUMOylation pathway inhibitor project, dose response (AID 463199); type: functional
Streptococcus = assay: GAS UMAA2166 growth inhibition – luminescence, BacTiterGlo, counter-screen for streptokinase expression inhibitor project, dose response (AID 1915); type: functional, organism-based;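 further: potency for reduction of bacterial viability or growth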
Cytochrome P450 2D6 = Cytochrome P450 2D6 (Homo sapiens, UniProt P10635);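 further: CYP2D6 member of a cytochrome P450 panel assay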
Streptokinase A = biological target: T6, Streptokinase A (Streptococcus pyogenes serotype M1, UniProt P10520); assay: viability-normalized secreted streptokinase activity reduction – plasminogen activation absorbance, OD405, dose response (AID 1914); type: functional, Streptococcus pyogenes M1 GAS;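 further: secreted streptokinase activity via plasminogen activation per viability signal from cell pellet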
T6 sequence (P10520 whole entry): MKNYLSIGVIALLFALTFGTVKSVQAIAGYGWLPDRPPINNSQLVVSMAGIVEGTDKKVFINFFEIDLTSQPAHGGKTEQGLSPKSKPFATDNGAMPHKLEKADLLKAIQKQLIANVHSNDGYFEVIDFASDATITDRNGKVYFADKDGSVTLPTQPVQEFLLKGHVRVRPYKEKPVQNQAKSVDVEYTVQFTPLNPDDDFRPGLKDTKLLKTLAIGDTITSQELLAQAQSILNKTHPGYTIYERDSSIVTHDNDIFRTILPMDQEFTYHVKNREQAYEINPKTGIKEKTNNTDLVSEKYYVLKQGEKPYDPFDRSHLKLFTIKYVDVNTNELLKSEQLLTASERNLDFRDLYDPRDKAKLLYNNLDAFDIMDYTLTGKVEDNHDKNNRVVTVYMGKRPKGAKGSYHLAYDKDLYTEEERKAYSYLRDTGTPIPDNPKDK

[14] = system: Streptococcus sp. 'group A'; assay: Streptococcus pyogenes SK(-)GAS viability under kanamycin – luminescence, BacTiterGlo, confirmation, counter-screen for streptokinase expression inhibitor project, dose response (AID 1900); type: functional, organism-based
Cytochrome P450 2C9 [15] = biological target: T2, Cytochrome P450 2C9; remark: listed apart in the source
Cytochrome P450 1A2 = biological target: T7, Cytochrome P450 1A2 (Homo sapiens, UniProt P05177);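 further: PubChem cytochrome P450 panel assay, CYP1A2 panel member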
T7 sequence (P05177 whole entry): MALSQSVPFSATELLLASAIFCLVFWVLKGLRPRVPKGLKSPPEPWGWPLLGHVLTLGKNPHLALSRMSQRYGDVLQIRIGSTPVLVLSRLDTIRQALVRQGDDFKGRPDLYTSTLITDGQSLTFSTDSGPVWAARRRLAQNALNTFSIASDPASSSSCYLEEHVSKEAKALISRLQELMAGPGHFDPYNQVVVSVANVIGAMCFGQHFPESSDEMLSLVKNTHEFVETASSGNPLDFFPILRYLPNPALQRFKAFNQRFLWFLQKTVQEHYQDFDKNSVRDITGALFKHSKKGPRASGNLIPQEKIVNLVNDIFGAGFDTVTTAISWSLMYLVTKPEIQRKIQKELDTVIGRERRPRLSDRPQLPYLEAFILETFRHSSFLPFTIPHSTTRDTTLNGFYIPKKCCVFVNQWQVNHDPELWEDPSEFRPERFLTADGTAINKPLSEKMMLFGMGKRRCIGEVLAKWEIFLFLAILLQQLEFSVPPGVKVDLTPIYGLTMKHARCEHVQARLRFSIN

Cytochrome P450 2C19 = Cytochrome P450 2C19 (Homo sapiens, UniProt P33261); assay: Cytochrome panel assay with activity outcomes. Panel member name: p450-cyp2c19 Compounds with AC50 equal or less than 10 uM are considered active; type: functional
[16] = biological target: Hepatocyte nuclear factor 4-alpha (Homo sapiens, UniProt P41235); type: functional, cell-based;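 further: biochemical luminescence-based dose-response counterscreen measuring inhibition of HNF4 dimerization, run alongside a screen for blockers of ABHD5–perilipin-5 interaction; split luciferase complementation of HNF4 fusion proteins in cell lysate measuring dimerization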
[17] = biological target: T8, Zinc finger protein mex-5 (Caenorhabditis elegans, UniProt Q9XUB2); assay: potency of MEX-5 RNA-binding blockers – biochemical, C. elegans, fluorescence polarization, dose response (AID 1960)
T8 sequence (Q9XUB2 whole entry): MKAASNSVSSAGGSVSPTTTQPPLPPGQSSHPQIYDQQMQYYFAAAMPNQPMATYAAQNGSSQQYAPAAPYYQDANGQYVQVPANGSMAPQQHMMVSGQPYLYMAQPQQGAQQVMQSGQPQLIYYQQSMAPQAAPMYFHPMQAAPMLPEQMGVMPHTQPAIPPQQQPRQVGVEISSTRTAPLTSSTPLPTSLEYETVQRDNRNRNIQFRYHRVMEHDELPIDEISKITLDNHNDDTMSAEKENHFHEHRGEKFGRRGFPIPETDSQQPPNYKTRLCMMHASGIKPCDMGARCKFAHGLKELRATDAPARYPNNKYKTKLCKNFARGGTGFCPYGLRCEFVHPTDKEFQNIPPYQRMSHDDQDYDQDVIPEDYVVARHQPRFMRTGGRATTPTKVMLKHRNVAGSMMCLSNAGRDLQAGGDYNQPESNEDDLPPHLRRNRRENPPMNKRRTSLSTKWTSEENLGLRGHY

[18] = biological target: T9, Alkaline phosphatase, tissue-nonspecific isozyme (Homo sapiens, UniProt P05186); assay: TNAP enzyme inhibition by screening hits, dose response, selectivity assay for mouse IAP inhibitor project, biochemical, human TNAP, uHTS hits (AID 488906); type: functional
T9 sequence (P05186 whole entry): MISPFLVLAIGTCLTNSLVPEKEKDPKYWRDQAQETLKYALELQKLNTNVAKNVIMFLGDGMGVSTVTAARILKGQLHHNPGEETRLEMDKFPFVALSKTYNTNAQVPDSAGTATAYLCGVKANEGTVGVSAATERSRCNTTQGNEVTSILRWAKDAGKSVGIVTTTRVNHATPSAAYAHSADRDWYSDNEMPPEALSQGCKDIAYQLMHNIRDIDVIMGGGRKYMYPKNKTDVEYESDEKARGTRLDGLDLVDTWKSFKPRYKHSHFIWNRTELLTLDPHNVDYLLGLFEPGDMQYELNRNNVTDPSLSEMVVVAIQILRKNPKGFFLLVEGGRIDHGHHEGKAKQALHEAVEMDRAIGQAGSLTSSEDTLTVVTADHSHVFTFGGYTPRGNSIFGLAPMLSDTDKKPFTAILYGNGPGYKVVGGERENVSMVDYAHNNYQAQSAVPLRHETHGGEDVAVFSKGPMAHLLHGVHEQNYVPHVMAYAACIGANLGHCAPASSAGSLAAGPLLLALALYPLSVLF

[19] = biological target: T10, RNA-binding protein pos-1 (Caenorhabditis elegans, UniProt G5EF15); assay: disruptors of C. elegans POS-1 RNA interaction – biochemical, fluorescence polarization, dose response (AID 1964);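 further: purified POS-1 fused to maltose binding protein made in E. coli; potency of compounds blocking POS-1 binding to fluorescent RNA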
T10 sequence (G5EF15 whole entry): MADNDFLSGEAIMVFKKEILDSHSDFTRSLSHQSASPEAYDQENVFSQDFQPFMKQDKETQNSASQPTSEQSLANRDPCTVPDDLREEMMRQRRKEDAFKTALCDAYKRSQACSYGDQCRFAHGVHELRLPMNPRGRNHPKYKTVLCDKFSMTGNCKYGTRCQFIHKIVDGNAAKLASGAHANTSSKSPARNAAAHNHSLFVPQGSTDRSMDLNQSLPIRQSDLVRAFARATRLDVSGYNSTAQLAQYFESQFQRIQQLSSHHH

[20] = biological target: Intestinal-type alkaline phosphatase (Homo sapiens, UniProt P09923); assay: inhibition of human intestinal alkaline phosphatase – biochemical, dose response (AID 488876); type: functional
Large T antigen = Large T antigen (Simian virus 40, UniProt P03070); type: functional, Betapolyomavirus macacae;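 further: Confirmatory-stage PubChem screen for compounds that inhibit SV40 T antigen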
[21] = biological target: Intestinal-type alkaline phosphatase (Mus musculus, UniProt P24822); assay: PubChem AID 488785; type: functional

T5 sequence (P41145 whole entry): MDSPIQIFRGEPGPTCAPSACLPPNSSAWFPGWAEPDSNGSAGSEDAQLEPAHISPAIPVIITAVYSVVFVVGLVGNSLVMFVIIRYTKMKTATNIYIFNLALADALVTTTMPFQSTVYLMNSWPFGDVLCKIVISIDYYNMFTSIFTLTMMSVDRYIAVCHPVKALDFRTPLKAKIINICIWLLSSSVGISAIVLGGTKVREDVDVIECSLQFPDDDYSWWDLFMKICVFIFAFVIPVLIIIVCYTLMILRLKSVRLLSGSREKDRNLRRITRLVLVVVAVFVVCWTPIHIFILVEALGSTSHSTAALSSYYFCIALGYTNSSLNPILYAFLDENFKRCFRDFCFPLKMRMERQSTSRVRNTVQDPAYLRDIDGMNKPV
T4 sequence (P35372 whole entry): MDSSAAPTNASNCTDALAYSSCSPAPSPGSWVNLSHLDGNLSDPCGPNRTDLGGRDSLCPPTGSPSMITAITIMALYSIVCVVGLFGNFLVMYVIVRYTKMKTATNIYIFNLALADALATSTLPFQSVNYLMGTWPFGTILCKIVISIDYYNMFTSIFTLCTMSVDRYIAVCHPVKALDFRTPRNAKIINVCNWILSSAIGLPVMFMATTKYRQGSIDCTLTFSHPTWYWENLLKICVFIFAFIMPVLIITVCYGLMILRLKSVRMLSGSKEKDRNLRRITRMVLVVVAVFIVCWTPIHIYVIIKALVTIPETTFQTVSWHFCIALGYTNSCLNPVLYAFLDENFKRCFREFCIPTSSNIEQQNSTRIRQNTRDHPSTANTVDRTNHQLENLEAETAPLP
T3 sequence (P41143 whole entry): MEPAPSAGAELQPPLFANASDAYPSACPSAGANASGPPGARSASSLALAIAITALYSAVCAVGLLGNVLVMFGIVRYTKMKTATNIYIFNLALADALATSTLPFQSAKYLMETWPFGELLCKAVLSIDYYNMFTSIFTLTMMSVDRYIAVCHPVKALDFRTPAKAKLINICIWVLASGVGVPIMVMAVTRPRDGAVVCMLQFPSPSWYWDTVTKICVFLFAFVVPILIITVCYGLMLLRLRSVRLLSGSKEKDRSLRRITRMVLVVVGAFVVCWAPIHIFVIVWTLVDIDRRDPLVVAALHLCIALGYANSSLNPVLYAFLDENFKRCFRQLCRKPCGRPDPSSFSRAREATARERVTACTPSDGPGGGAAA
T1 sequence (Q9HC97 whole entry): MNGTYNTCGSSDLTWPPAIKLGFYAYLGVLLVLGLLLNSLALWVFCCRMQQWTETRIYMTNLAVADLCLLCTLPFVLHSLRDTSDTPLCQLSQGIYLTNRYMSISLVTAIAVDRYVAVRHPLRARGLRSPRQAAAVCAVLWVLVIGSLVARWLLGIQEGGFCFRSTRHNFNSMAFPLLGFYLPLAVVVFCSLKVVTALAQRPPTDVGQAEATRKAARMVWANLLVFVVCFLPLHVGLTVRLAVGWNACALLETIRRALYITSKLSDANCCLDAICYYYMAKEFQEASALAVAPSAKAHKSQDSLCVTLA
T2 sequence (P11712 whole entry): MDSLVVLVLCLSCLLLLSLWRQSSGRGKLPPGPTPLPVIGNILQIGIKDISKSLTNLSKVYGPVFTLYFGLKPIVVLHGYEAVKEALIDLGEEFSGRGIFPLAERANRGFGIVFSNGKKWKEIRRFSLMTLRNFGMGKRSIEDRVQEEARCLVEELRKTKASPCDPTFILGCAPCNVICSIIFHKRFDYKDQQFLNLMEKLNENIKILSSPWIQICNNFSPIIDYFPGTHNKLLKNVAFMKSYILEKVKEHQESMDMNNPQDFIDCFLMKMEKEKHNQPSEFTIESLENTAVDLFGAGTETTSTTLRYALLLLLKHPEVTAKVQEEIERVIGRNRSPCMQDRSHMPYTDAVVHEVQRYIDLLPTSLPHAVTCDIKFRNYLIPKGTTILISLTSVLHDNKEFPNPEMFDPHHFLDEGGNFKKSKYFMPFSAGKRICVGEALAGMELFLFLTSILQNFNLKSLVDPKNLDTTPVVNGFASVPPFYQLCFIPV
Sequence of Large T antigen (P03070 whole entry): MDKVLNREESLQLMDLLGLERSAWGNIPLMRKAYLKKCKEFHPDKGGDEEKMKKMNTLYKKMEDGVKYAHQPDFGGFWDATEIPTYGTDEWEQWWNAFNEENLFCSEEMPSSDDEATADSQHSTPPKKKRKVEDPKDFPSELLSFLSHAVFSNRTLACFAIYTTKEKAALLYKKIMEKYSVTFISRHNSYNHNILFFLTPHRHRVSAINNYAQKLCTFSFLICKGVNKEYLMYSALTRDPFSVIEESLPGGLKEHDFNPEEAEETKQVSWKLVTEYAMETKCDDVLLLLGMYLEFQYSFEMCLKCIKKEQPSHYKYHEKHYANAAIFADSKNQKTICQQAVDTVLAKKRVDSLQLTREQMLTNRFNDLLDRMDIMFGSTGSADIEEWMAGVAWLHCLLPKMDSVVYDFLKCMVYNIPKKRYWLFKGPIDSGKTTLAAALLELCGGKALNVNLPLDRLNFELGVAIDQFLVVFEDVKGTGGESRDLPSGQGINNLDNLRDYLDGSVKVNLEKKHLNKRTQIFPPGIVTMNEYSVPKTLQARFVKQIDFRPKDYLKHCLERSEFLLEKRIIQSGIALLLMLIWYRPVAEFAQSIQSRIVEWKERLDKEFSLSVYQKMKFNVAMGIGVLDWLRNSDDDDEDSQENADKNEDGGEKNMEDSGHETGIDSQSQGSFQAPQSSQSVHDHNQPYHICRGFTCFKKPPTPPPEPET
Sequence of Intestinal-type alkaline phosphatase (Homo sapiens, UniProt P09923) (P09923 whole entry): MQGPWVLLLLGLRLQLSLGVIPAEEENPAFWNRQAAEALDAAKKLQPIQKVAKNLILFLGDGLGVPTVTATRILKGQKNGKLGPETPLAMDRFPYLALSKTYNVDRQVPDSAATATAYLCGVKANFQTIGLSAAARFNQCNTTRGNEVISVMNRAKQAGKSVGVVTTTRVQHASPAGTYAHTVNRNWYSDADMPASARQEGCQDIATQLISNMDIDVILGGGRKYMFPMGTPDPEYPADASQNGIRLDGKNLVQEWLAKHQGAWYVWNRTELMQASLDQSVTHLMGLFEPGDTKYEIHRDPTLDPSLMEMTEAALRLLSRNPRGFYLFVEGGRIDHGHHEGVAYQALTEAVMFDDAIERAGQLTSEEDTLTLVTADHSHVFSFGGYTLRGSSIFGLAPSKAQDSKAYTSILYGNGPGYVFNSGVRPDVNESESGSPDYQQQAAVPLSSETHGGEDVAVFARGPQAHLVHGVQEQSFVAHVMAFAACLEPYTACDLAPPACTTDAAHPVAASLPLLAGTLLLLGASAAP
Sequence of Hepatocyte nuclear factor 4-alpha (P41235 whole entry, the tested form may be a part): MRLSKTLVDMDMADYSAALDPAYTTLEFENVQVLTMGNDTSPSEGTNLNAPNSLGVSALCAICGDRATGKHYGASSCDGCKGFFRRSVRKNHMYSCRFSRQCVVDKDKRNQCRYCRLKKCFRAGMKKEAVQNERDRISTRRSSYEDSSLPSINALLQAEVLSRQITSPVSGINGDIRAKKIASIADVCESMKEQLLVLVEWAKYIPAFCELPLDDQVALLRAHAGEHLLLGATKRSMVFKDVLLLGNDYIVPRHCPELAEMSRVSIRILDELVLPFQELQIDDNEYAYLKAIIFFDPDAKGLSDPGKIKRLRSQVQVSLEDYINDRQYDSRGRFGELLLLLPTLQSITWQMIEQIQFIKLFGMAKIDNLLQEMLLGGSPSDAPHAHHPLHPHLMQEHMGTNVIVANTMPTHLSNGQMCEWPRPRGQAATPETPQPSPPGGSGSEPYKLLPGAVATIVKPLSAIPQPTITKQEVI
Sequence of Cytochrome P450 2D6 (P10635 whole entry): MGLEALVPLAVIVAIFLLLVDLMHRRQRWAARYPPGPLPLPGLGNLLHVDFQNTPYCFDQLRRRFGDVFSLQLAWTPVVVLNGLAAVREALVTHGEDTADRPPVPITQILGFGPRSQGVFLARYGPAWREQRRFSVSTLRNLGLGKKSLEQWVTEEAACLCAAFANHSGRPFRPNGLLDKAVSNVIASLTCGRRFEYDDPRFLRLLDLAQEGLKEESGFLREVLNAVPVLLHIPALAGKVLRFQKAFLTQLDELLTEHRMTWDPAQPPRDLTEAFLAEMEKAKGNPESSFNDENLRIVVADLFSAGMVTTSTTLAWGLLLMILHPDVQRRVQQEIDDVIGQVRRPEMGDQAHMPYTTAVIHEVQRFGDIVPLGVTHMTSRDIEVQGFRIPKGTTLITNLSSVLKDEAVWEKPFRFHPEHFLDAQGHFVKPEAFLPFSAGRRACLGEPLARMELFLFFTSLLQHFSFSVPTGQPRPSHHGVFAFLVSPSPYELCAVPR
Sequence of Cytochrome P450 2C19 (P33261 whole entry, the tested form may be a part): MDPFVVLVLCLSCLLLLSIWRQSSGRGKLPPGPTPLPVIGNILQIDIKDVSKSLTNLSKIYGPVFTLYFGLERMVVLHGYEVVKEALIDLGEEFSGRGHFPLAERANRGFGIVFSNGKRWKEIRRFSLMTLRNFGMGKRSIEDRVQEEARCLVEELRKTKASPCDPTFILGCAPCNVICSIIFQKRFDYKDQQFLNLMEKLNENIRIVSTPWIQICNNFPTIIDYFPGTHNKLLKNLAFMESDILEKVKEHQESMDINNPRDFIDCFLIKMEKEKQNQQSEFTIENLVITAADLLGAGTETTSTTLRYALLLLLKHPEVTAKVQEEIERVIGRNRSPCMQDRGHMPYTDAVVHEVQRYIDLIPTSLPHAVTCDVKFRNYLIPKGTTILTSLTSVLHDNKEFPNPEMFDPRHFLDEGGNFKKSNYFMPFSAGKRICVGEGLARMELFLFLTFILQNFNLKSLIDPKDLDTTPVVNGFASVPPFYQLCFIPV
Sequence of G-protein coupled receptor 55 (Q9Y2T6 whole entry): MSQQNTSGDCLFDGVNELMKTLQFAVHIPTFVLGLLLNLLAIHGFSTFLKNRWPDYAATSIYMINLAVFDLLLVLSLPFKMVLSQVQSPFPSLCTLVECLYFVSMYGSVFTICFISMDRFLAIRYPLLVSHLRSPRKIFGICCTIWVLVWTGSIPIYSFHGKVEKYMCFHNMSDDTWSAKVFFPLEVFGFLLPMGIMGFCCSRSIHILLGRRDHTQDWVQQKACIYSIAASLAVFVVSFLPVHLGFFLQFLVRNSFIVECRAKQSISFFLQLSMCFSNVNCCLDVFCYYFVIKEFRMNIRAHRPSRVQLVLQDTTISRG

Cc1ccc(/C=C2\SC(=S)N(CCCC(=O)Nc3ccc(O)cc3)C2=O)cc1
IC50 [1]: > 80 µM (inactive) | IC50 [2]: > 32 µM (inactive) | IC50 [3]: 0.253 µM (active) | IC50 [4]: 0.744 µM (active)

COc1ccc(-c2cc3ccccc3n2CC(O)CNCCO)cc1 (centres undefined)
AC50 (Trypsin): 17.3 µM (active) | AC50 (Cytochrome P450 2C9 [5]): 17.8 µM (inconclusive) | AC50 (CAAX prenyl protease 1): 11.5 µM (active)

COc1ccc(CSc2nnc(-c3ccccn3)n2Cc2ccco2)cc1
IC50 [6]: > 32 µM (inactive) | EC50 [7]: > 32 µM (inactive) | IC50 (Mu-type opioid receptor [8]): > 32 µM (inactive) | IC50 [9]: > 32 µM (inactive) | EC50 (Mu-type opioid receptor [10]): > 32 µM (inactive) | EC50 [11]: 12.4 µM (inactive) | EC50 [12]: 7.69 µM (active)

O=C(c1cc(F)ccc1F)C1CCCN(C(=O)c2ccc3nccnc3c2)C1 (centres undefined)
AC50 [13]: 78.3 µM (active)

CC1(C)N=C(N)N=C(Nc2ccccc2)N1
EC50 (Streptococcus): > 150 µM (not active) | AC50 (Cytochrome P450 2D6): 39.8 µM (inconclusive) | EC50 (Streptokinase A): > 150 µM (not active) | EC50 [14]: 1.52 µM (active) | AC50 (Cytochrome P450 2C9 [15]): inconclusive | AC50 (Cytochrome P450 1A2): inactive | AC50 (Cytochrome P450 2C19): inactive

CN1C(=O)/C(=C/C=C/c2ccco2)C(=O)NC1=S
IC50 [16]: 2.56 µM (active) | EC50 [17]: 37.5 µM (active) | IC50 [18]: 23.5 µM (active) | EC50 [19]: 33.5 µM (active) | IC50 [20]: 9.58 µM (active) | IC50 (Large T antigen): 11.9 µM (active) | IC50 [21]: 11.8 µM (active)
